These results are taken from paper PMC12663132, “Assessment of cytotoxicity of some synthetic compounds against breast carcinoma spheroids with subsequent analysis of pro-apoptotic and gene expression” (Scientific Reports, 2025).

One experiment concerns MCF7 3D spheroids. As to the kind of experiment: Cytotoxicity on MCF7 3D multicellular spheroids (acid phosphatase method). To be noted: Homo sapiens, MCF7, 120 h, read-out: Mean of % cytotoxicity ± S.D.
Another experiment concerns MCF7. In words: Cytotoxicity on MCF7 monolayers (MTT assay). Particulars: Homo sapiens, MCF7, 72 h, read-out: Mean of % cytotoxicity ± SD. For orientation: Formazan colour is commonly taken as a measure of viable cells.

Counter-ions that a name gives are not always drawn.

Description for MCF7 3D spheroids: Eighty pre-plated synthetic chemical compounds were screened on two human cell lines: MCF7 (ATCC® HTB-22™), a Caucasian breast adenocarcinoma model, and hTERT-RPE-1 (ATCC® CRL-4000™), a normal retinal epithelial cell line immortalized by hTERT telomerase. […] The cells were cultured in DMEM-F12 medium supplemented with L-glutamine and 10% fetal bovine serum, all were purchase from Biowest (Biotechnology company in Nuaillé, France), and maintained in a controlled incubator environment set at 37 °C with 5% CO2 and 95% humidity.
3-D spheroid models were generated from MCF7 cancer and hTERT-RPE1 normal cells were seeded at 10,000 and 50,000 cells/well, respectively, in poly-HEMA coated round bottom plates according to the protocol previously mentioned[44]. The cells were incubated for 5 days to generate the spheroids with diameter of 500 ± 20 µm. The spheroids were imaged using Olympus S100, U-CMAD3 camera connected to Olympus inverted microscope and the diameter of the spheroids was measured using Cellscen-Entry software. Test compounds were added in triplicate to a final concentration of 50 µM and were incubated for 120 h. […] At the end of incubation, cytotoxicity was determined using the acid phosphatase method[45]. After washing twice with 250 μL PBS buffer, 100 μL of 0.1 M sodium citrate, 0.1% Triton X-100, p-nitrophenylphosphate (2 mg/ml) (Pierce Biotechnology Inc., Rockford, IL) was added to each well and incubated for 1.5 h at 37 °C. After incubation, 10 μL of 1N NaOH stop solution was added to each well, and absorbance was read at 405 nm. Cytotoxicity was calculated according to the following equation:

Regarding `ON=Cc1ccc(-c2ccccc2OC(F)(F)F)o1` [G10, 5-[2-(trifluoromethoxy)phenyl]-2-furaldehyde oxime], the cytotoxicity at 50 µM with MCF7 3D spheroids was found to be 54.4 ± 1.2%; in the experiment with MCF7, 100 ± 0.003%.
With `COc1ccc(C(=O)NCc2ccco2)cc1OC` [C06, N-(2-furylmethyl)-3,4-dimethoxybenzamide], the cytotoxicity at 50 µM is 35.8 ± 0.23% in the experiment on MCF7 3D spheroids and 0% in the experiment with MCF7.
Taken in the same sequence, the figures for `Cc1cc(Br)c(NC(=O)C(Cl)Cl)c(Br)c1` [H07, N1-(2,6-dibromo-4-methylphenyl)-2,2dichloroacetamide] were 40.6 ± 0.7% and 65.3 ± 2.3%.
Regarding `CCOC(=O)c1cnn(C(=O)c2snnc2C)c1N` [A05, Ethyl 5-amino-1-[(4-methyl-1,2,3-thiadiazol-5-yl)carbonyl]-1H-pyrazole-4-carboxylate], the values for the cytotoxicity at 50 µM in the experiment with MCF7 3D spheroids and in the experiment on MCF7 were 49 ± 0.8% and 62.3 ± 2.5%, respectively.
`Cc1c(NCN2C(=O)CCC2=O)cc2c(c1[N+](=O)[O-])C(C)(C)CC2(C)C` [G09, 1-{[(1,1,3,3,6-pentamethyl-7-nitro-2,3-dihydro-1H-inden-5-yl)amino]methyl}pyrrolidine-2,5-dione]: the cytotoxicity at 50 µM in the experiment with MCF7 3D spheroids turned out to be 66.5 ± 1.1%; with MCF7, 100 ± 0.005%.
The like results for `COc1c(Cl)cc([N+](=O)[O-])c(OC)c1C(=O)O` [D06, 3-chloro-2,6-dimethoxy-5-nitrobenzoic acid] were, in that order, 40.8 ± 2.1% and 10.4 ± 0.6%.
Taken in the same sequence, the figures for `Cn1c(SCC(=O)NN2CC(=O)N(c3cccc(Cl)c3)CC2=O)nnc1-c1ccncc1` [G02, N-[4-(3-chlorophenyl)-2,5-dioxopiperazino]-2-{[4-methyl-5-(4-pyridinyl)-4H-1,2,4-triazol-3-yl]sulfanyl}acetamide] were -9.9 ± 0.8% and 0%.
The like results for `CC(C)N1CC(COc2ccc(Br)cc2)OC1=O` (stereo not shown) [H08, 5-[(4-bromophenoxy)methyl]-3-isopropyl-1,3-oxazolan-2-one] were, in that order, 49 ± 1.4% and 18 ± 2.23%.
For `CC1(C)C=Cc2cc(C(N)=NOC(=O)c3cccc(C(F)(F)F)c3)ccc2O1` [E10, O6-[3-(trifluoromethyl)benzoyl]-2,2-dimethyl-2H-chromene-6-carbohydroximamide], the cytotoxicity at 50 µM in the experiment on MCF7 3D spheroids was found to be 67.5 ± 0.5%; with MCF7 it was 100 ± 0.003%.
The like results for `Cc1nnsc1-c1nnc(-c2ccccc2C(F)(F)F)o1` [F09, 2-(4-methyl-1,2,3-thiadiazol-5-yl)-5-[2-(trifluoromethyl)phenyl]-1,3,4-oxadiazole] were, in that order, 14.2 ± 0.5% and 9.9 ± 3.8%.
`NS(=O)(=O)c1cccc(NC(=O)c2cccnc2Oc2ccccc2)c1` [G07, N-[3-(aminosulfonyl)phenyl]-2-phenoxynicotinamide]: the cytotoxicity at 50 µM with MCF7 3D spheroids came to 35.1 ± 0.77%; in the experiment with MCF7 it was 0%.
Regarding `CCCS(=O)(=O)c1cscc1NC(=O)c1c(-c2c(F)cccc2Cl)noc1C` [A10, N4-[4-(propylsulfonyl)-3-thienyl]-3-(2-chloro-6-fluorophenyl)-5-methylisoxazole-4-carboxamide], the cytotoxicity at 50 µM with MCF7 3D spheroids amounted to 68.6 ± 1.1%; in the experiment with MCF7, 53.8 ± 4.9%.
The like results for `O=C1C2CCN(CC2)C1CSc1ccc(Cl)cc1` (stereo not shown) [F02, 2-{[(4-chlorophenyl)thio]methyl}quinuclidin-3-one] were, in that order, 52 ± 2.9% and 100 ± 0.003%.
In the case of `O=C1NC(=O)C(=Cc2ccncc2)C(=O)N1` [B09, 5-(4-pyridylmethylidene)hexahydropyrimidine-2,4,6-trione], the cytotoxicity at 50 µM in the experiment on MCF7 3D spheroids was determined as 59.2 ± 1.2%; in the experiment on MCF7 it was 12.3 ± 0.7%.
Regarding `NS(=O)(=O)c1ccc(NNC(=O)c2cccs2)cc1` [E07, 4-[2-(2-thienylcarbonyl)hydrazino]benzenesulfonamide], the cytotoxicity at 50 µM was found to be 36.2 ± 0.35% in the experiment with MCF7 3D spheroids and 0% with MCF7.
The like results for `O=[N+]([O-])c1ccc2nc(-c3ccccc3)c(-c3ccccc3)nc2c1` [D02, 6-nitro-2,3-diphenylquinoxaline] were, in that order, -8 ± 0.003% and 5.2 ± 0.18%.
Take `COc1cc(C(F)(F)F)nc2ccc(C#CCOC(=O)c3ccccc3)cc12` [G03, 3-[4-methoxy-2-(trifluoromethyl)-6-quinolyl]prop-2-ynyl benzoate]: the values for the cytotoxicity at 50 µM in the experiment on MCF7 3D spheroids and with MCF7 were 21.3 ± 0.6% and 49.8 ± 2.9%, respectively.
Taken in the same sequence, the figures for `CCOC(=O)c1ccc(-n2c(=S)[nH]c3ccccc32)cc1` [B02, ethyl 4-(2-thioxo-2,3-dihydro-1H-benzimidazol-1-yl)benzoate] were 35.7 ± 1.8% and 100 ± 0.003%.
As to `COc1cc(-n2c(SC)nc3ccccc3c2=O)c(OC)cc1Cl` [A02, 3-(4-chloro-2,5-dimethoxyphenyl)-2-(methylthio)-3,4-dihydroquinazolin-4-one], the cytotoxicity at 50 µM in the experiment on MCF7 3D spheroids is 67.1 ± 3.3%; in the experiment on MCF7, 94.3 ± 0.06%.
Turning to `Cn1ccnc1SCC(=O)Nc1ccc(C(C)(C)C)cc1` [C04, N1-[4-(tert-butyl)phenyl]-2-[(1-methyl-1H-imidazol-2-yl)thio]acetamide], the cytotoxicity at 50 µM was found to be 28.6 ± 0.76% in the experiment on MCF7 3D spheroids and 14.5 ± 0.58% in the experiment on MCF7.
Taken in the same sequence, the figures for `CS(=O)(=O)CC(N)=S` [H05, 2-(methylsulfonyl)ethanethioamide] were 19.3 ± 0.5% and 24.1 ± 1.17%.
The like results for `CC(=O)Cc1nsc(Nc2ccccc2)n1` [B06, 1-(5-anilino-1,2,4-thiadiazol-3-yl)acetone] were, in that order, 20.4 ± 0.35% and 14.8 ± 2.6%.
The like results for `O=C(SCc1cccc(C(F)(F)F)c1)c1ccc(Cl)c(Cl)c1` [C10, S-[3-(trifluoromethyl)benzyl] 3,4-dichlorobenzene carbothioate] were, in that order, 33.8 ± 1.6% and 100 ± 0.003%.
In the case of `CN(C)C=C1Cc2ccccc2C1=O` [E05, 2-[(dimethylamino)methylidene]indan-1-one], the cytotoxicity at 50 µM in the experiment on MCF7 3D spheroids was 41.4 ± 3.6%; in the experiment with MCF7, 47.5 ± 6.2%.
Taken in the same sequence, the figures for `C(=Cc1ccco1)C1=NN(Cc2ccccc2)CC1` [C05, 1-benzyl-3-[2-(2-furyl)vinyl]-4,5-dihydro-1H-pyrazole hydrochloride] were 48.6 ± 2% and 62.9 ± 3.8%.
The like results for `CC(C)(C)SCCNc1nc(Oc2ccc(F)cc2)nc(Oc2ccc(F)cc2)n1` [E03, N2-[2-(tert-butylthio)ethyl]-4,6-di(4-fluorophenoxy)-1,3,5-triazin-2-amine] were, in that order, 41.8 ± 0.6% and 80.3 ± 1.5%.
Turning to `Cc1ccc2[nH]c(SCC(=O)NC3Cc4ccccc4C3)nc2c1` [H03, N-(2,3-dihydro-1H-inden-2-yl)-2-[(5-methyl-1H-benzimidazol-2-yl)thio]acetamide], the cytotoxicity at 50 µM with MCF7 3D spheroids amounted to 15.8 ± 0.11%; in the experiment on MCF7 it was 88.5 ± 5.8%.
The like results for `COc1ccc(NNC(=O)c2c(-c3c(F)cccc3Cl)noc2C)cc1` [D10, 3-(2-chloro-6-fluorophenyl)-N'-(4-methoxyphenyl)-5-methyl-4-isoxazolecarbohydrazide] were, in that order, 51.7 ± 1.1% and 52.1 ± 2.11%.
For `O=C(O)c1nccnc1C(=O)Nc1ccccc1N1CCOCC1` [A08, 3-[(2-morpholinoanilino)carbonyl]-2-pyrazinecarboxylic acid], the cytotoxicity at 50 µM with MCF7 3D spheroids was determined as 49.3 ± 0.53%; in the experiment on MCF7 it was 17.2 ± 1%.
Taken in the same sequence, the figures for `Cc1c(C)c(C)c2[nH]c(-c3ccc4c(c3)OCO4)nc2c1C` [D04, 2-(1,3-benzodioxol-5-yl)-4,5,6,7-tetramethyl-1H-benzimidazole] were 67.9 ± 0.5% and 100 ± 0.003%.
Taken in the same sequence, the figures for `CC(=O)c1ccccc1OC(=O)c1ccc([N+](=O)[O-])o1` [C08, 2-acetylphenyl 5-nitro-2-furoate] were 30.8 ± 1.3% and 66.3 ± 4.3%.
On to `CCOC1=NC(=Cc2[nH]c(OCC)c(CC(=O)OC)c2C(=O)OC)C(C(=O)OC)=C1CC(=O)OC` [E02, methyl 5-ethoxy-2-{[5-ethoxy-3-(methoxycarbonyl)-4-(2-methoxy-2-oxoethyl)-2H-pyrrol-2-yliden]methyl}-4-(2-methoxy-2-oxoethyl)-1H-pyrrole-3-carboxylate], for which the cytotoxicity at 50 µM with MCF7 3D spheroids was -10.8 ± 0.7%; with MCF7 it was 83.2 ± 1.2%.
For `O=C(Nc1cc(-c2ccccc2)n[nH]1)C1COc2ccccc2O1` (stereo not shown) [A09, N2-(3-phenyl-1H-pyrazol-5-yl)-2,3-dihydro-1,4-benzodioxine-2-carboxamide], the cytotoxicity at 50 µM in the experiment with MCF7 3D spheroids amounted to 52.2 ± 1.9%; in the experiment with MCF7 it was 100 ± 0.003%.
Taken in the same sequence, the figures for `NS(=O)(=O)c1cccc(NC(=O)Nc2ccccc2)c1` [F11, 3-[(anilinocarbonyl)amino]benzenesulfonamide] were 60.4 ± 0.77% and 0%.
In the case of `OC(CSc1ccccc1)CN1CCN(c2nccc(C(F)(F)F)n2)CC1` (stereo not shown) [F08, 1-(phenylthio)-3-{4-[4-(trifluoromethyl)pyrimidin-2-yl]piperazino}propan-2-ol], the cytotoxicity at 50 µM in the experiment on MCF7 3D spheroids is 61.6 ± 0.8%; in the experiment with MCF7, 100 ± 0.003%.
The like results for `O=C1CNC(=S)N1CCOc1ccc(Cl)cc1` [F05, 3-[2-(4-chlorophenoxy)ethyl]-2-thioxoimidazolidin-4-one] were, in that order, 31.6 ± 0.8% and 96.9 ± 1.4%.
The like results for `COc1ccc(Cl)cc1NC(=O)Nc1ccc(N2CCCCC2)cc1` [E09, N-(5-chloro-2-methoxyphenyl)-N'-(4-piperidinophenyl) urea] were, in that order, 50.7 ± 0.52% and 28.3 ± 0.9%.
Turning to `CC(C)=NOC(=O)c1scc(S(C)(=O)=O)c1Cl` [B07, 3-chloro-2-({[(1methylethylidene)amino]oxy}carbonyl)-4-(methylsulfonyl)thiophene], the cytotoxicity at 50 µM worked out at 34.9 ± 1.7% in the experiment on MCF7 3D spheroids and 0% in the experiment on MCF7.
